Experimental findings from patent US20200031920A1, “Combination Therapy for Treating Cancer” (The George Washington University, priority 2017, published 2020) are described below.

What all share (type): cell-based
The test system of data set [1] is SKOV3 CR cells. The experiment in a line: apoptosis (Annexin V and Propidium Iodide staining, cleaved PARP). The method, then: FIG. 2 is an illustration showing representative flow plots (A) and a bar graph (B) of SKOV3 and SKOV3 CR cells treated with cisplatin for 48 h and analyzed for Annexin V and Propidium Iodide staining by flow cytometry (A) and quantified apoptosis percentage (B). Data are represented as mean±SD from three independent experiments performed in triplicate. **p<0.01. FIG. 23 is an illustration showing the immunoblotting for the indicated targets in SKOV3 CR cells treated with vehicle (DMSO), 3 μM LY2784544, 5 μM cisplatin, or the combination for 48 hr. FIG. 24 is an illustration showing representative flow plots of SKOV3 CR cells treated with vehicle, 3 μM LY2784544, 5 μM cisplatin, or the combination (combo) for 48 hr and analyzed for Annexin V and Propidium Iodide staining by flow cytometry. Since cisplatin exerts its anticancer effect mainly through its ability to cause DNA damage, resulting in apoptosis, the apoptotic cells in both SKOV3 and SKOV CR cells were measured using Annexin V and Propidium Iodide staining. […] To test whether SKOV3 CR cells are resistant to cisplatin-induced apoptosis in vivo, both SKOV3 and SKOV3 CR cells were injected into nude mice to form xenograft tumors. Once the tumor size reached 100-150 mm^3, cisplatin was given to mice by intraperitoneal injections twice a week for 2 weeks. Three days after treatment, the apoptosis in tumors was examined by TUNEL staining. […] Currently, carboplatin is a more commonly used platinum drug employed clinically to treat ovarian patients. Ozols et al., J Clin Oncol 21: 3194-3200 (2003). Thus, it was tested whether SKOV3 CR cells are also resistant to carboplatin (Sigma-Aldrich). The effects of LY2784544 on the JAK2/STAT5 signaling pathway in both SKOV3 and SKOV3 CR cells were examined.

For data set [2], the system named is SKOV3 CR cells. In words: cell viability / proliferation (SRB) assay, cisplatin resistant SKOV3 CR cells. The conditions noted are these: combination with carboplatin, CI<1 synergism.
The test system of data set [3] is SKOV3 CR cells. Described as above. The procedure:
(§1) FIG. 1 is a line graph showing the proliferation of SKOV3 parental and SKOV3 CR cells treated with increasing concentrations of cisplatin for five days. Data are represented as mean±SD from three independent experiments performed in triplicate. Indicated IC50 values represent the mean of two independent experiments performed in triplicate.
(§2) FIG. 13 is a line graph showing the proliferation of SKOV3 parental and SKOV3 CR cells treated with increasing concentrations of cisplatin and 0.4 μM LY2784544 for five days. Data are represented as mean±SD from three independent experiments performed in triplicate.
(§3) Cisplatin resistant ovarian cancer cell lines were generated using procedures as described previously. Jazaeri et al., Mol Cancer Ther 12: 1958-1967 (2013). Ovarian cancer cells SKOV3 were cultured in the medium with cisplatin (Sigma-Aldrich) for three weeks, followed by release to cisplatin-free medium for another three weeks. In the next cycle, the cisplatin treatment was repeated in the medium with an increased concentration of cisplatin. After six-cycle treatment, cells were identified that were able to grow in the medium with a high concentration of cisplatin. These cisplatin resistant cells were named as SKOV3 CR (FIG. 1).
(§4) The results obtained from combinational HTS were confirmed by testing whether LY2784544 overcomes cisplatin resistance in ovarian cancer cells using multiple assays. […] The Combination index (CI), which quantitatively describes the interaction between drugs including synergism (CI<1), additive effect (CI=1), and antagonism (CI>1), was calculated.

A further data set deals with PEO4 cells. In words: cell proliferation assay, PEO4 cells. An excerpt: FIG. 63 is a line graph showing the proliferation of PEO1 and PEO4 cells treated with increasing concentrations of cisplatin for 5 days. Data are represented as mean±SD from three independent experiments performed in triplicate. Indicated IC50 values represent the mean of […] independent experiments performed in triplicate.
FIG. 64 is a bar graph showing the synergistic effects of LY2784544 and cisplatin in PEO4 cells. CI values are presented above the bars. CI<1 indicates synergism, CI=1 indicates additive effect, and CI>1 indicates antagonism.
For ovarian cancer, recurrence more than 12 months after initial chemotherapy was considered as platinum sensitive. PEO4 was derived from the patient 10 months later when they had progressive disease and had become cisplatin resistant.

The next data set concerns SKOV3 cells. The experiment in a line: cell viability / proliferation (SRB) assay, SKOV3 parental cells. The procedure:
as §1, §2, §3, §4

For data set [4], the system named is phosphorylation of JAK2 (Y1007/1008) and STAT5 (Y694). In words: western blot of JAK2/STAT5 signaling. The method, then:
FIG. 22 is an illustration showing that LY2784544 down-regulates JAK2/STAT5 signaling in SKOV3 CR cells. Cells were treated with the indicated concentrations of LY2784544 for 48 hr.
FIG. 23 is an illustration showing the immunoblotting for the indicated targets in SKOV3 CR cells treated with vehicle (DMSO), 3 μM LY2784544, 5 μM cisplatin, or the combination for 48 hr.
To investigate the molecular mechanism by which the JAK2-mediated pathway regulates cisplatin resistance of ovarian cancer, the activation of the JAK2-mediated pathway in paired sensitive cell line (SKOV3, IGROV1, PEO1) and resistant cell lines (SKOV3 CR, IGROV1 CR, PEO4) was examined by western blot. Compared to cisplatin sensitive cells SKOV3 or IGROV1, the JAK2 protein levels are not changed in cisplatin resistant cells SKOV3 CR, IGROV1 CR, or PEO4.
The effects of LY2784544 on the JAK2/STAT5 signaling pathway in both SKOV3 and SKOV3 CR cells were examined.

Another data set deals with IGROV1 CR cells. In words: cell proliferation assay, cisplatin resistant IGROV1 CR cells. An excerpt:
FIG. 60 is a line graph showing the proliferation of IGROV1 parental and IGROV1 CR cells treated with increasing concentrations of cisplatin for 5 days (left). Data are represented as mean±SD from three independent experiments performed in triplicate. Indicated IC50 values represent the mean of two independent experiments performed in triplicate.
FIG. 61 is a bar graph showing the synergistic effects of LY2784544 and cisplatin in IGROV1 CR cells (right). CI values are presented above the bars. CI<1 indicates synergism, […] indicates additive effect, and CI>1 indicates antagonism.
Using a similar approach as described in FIG. 1, another cisplatin resistant ovarian cancer cell line IGROV1 CR was raised from its cisplatin sensitive parental cell IGROV1 cells. […] The cell proliferation of IGROV1 CR cells treated with cisplatin, LY2784544 or both LY2784544 and cisplatin was examined.

Where [5] appears, read: SKOV3 CR cells, 3 μM LY2784544 plus 5 μM cisplatin, 48 hr.

By IC50 is commonly meant the concentration at which inhibition is half-maximal.

“Also recorded” adds a separate entry of the source.

Turning to `Cc1cc(Nc2cc(CN3CCOCC3)c3nc(C)c(Cc4ccc(Cl)cc4F)n3n2)n[nH]1` [LY2784544], the “apoptosis (cleaved PARP), single agent” value in the data set with SKOV3 CR cells [1] (SKOV3 CR cells, 3 μM LY2784544, 48 hr) is “did not cause apoptosis”. The “apoptosis (cleaved PARP), combination with cisplatin” value in the data set on SKOV3 CR cells [1] (setting [5]) is on record as “induced apoptotic cell death”. The “apoptotic cells (Annexin V and Propidium Iodide), combination with cisplatin” value in the data set on SKOV3 CR cells [1] (setting [5]) was “significant increase of apoptotic cells”. Besides, the “medium CI (combination index)” value is given as 0.75 in the data set with SKOV3 CR cells [2]; 0.69 in the data set with SKOV3 CR cells [3] (combination with cisplatin, SKOV3 CR cells, CI<1 synergism); 0.34 in the data set on PEO4 cells (combination with cisplatin, PEO4 cells); 0.93 in the data set on SKOV3 cells (combination with cisplatin, SKOV3 cells, CI<1 synergism); 0.71 in the data set on IGROV1 CR cells (combination with cisplatin, IGROV1 CR cells). Besides, the “cisplatin IC50 shift ability (comparison of the three hits)” value in the data set on SKOV3 CR cells [3] (SKOV3 CR cells) is reported as “better cisplatin IC50 shift ability than MLN4924 or NSC319726”. Also, the “sensitization of SKOV3 CR cells to cisplatin (proliferation)” value with SKOV3 CR cells [3] (combination with cisplatin at different doses, FIG. 13: 0.4 μM LY2784544, five days) is “significantly increased the sensitivity of SKOV3 CR cells to cisplatin; also recorded: re-sensitized SKOV3 CR cells to cisplatin”. In the data set with SKOV3 cells (medium with cisplatin or without cisplatin), the “effect on cell proliferation of SKOV3” value is given as “did not affect the cell proliferation of SKOV3”. Further, in data set [4] (both SKOV3 and SKOV3 CR cells, 48 hr), the “phosphorylation of JAK2 and STAT5” value was “significantly reduced the phosphorylation of JAK2 as well as the phosphorylation of STAT5”.
Take `N.N.[Cl][Pt][Cl]` [cisplatin]: the “apoptosis, SKOV3 versus SKOV3 CR cells” value with SKOV3 CR cells [1] (cisplatin for 48 h, Annexin V and Propidium Iodide staining) is given as “induced more apoptosis in SKOV3 cells than in SKOV3 CR cells”. Also, the IC50 in the data set on SKOV3 CR cells [3] (SKOV3 CR cells, 5 days) was found to be 10400 nM; in the data set with PEO4 cells (PEO4 cells, 5 days), 1990 nM; with SKOV3 cells (SKOV3 parental cells, 5 days) it was 2000 nM; with IGROV1 CR cells (IGROV1 CR cells, 5 days), 1500 nM. The “fold increase of IC50, PEO4 vs PEO1” value in the data set with PEO4 cells (5 days) is recorded as 6.2 fold. Further, the “JAK2/STAT5 signaling after cisplatin treatment” value in data set [4] (SKOV3 parental cells, various small doses and times of cisplatin) is given as “JAK2/STAT5 signaling was activated”. Moreover, the “fold increase of IC50, IGROV1 CR vs parental IGROV1” value in the data set on IGROV1 CR cells (5 days) was found to be 2.9 fold.
